One data set has as its system human primary cells. The data set is described as follows: BioMAP Diversity PLUS panel (12 human primary cell-based systems). As for the experimental part: Four concentrations of LMW-DS (ILB®, Tikomed AB, Viken, Sweden, WO 2016/076780; 150 nM, 440 nM, 1.3 µM, 4 µM) were investigated in the BioMAP® Diversity PLUS panel by Eurofins.
Human primary cells in BioMAP systems are used at early passage (passage 4 or earlier) to minimize adaptation to cell culture conditions and preserve physiological signaling responses. All cells are from a pool of multiple donors (n = 2 - 6), commercially purchased and handled according to the recommendations of the manufacturers. Human blood derived CD14+ monocytes are differentiated into macrophages in vitro before being added to the Mphg system. Abbreviations are used as follows: Human umbilical vein endothelial cells (HUVEC), Peripheral blood mononuclear cells (PBMC), Human neonatal dermal fibroblasts (HDFn), B cell receptor (BCR), T cell receptor (TCR) and Toll-like receptor (TLR).
Cell types and stimuli used in each system are as follows: 3C system [HUVEC + (IL-1β, TNFα and IFNy)], 4H system [HUVEC + (IL-4 and histamine)], LPS system [PBMC and HUVEC + LPS (TLR4 ligand)], SAg system [PBMC and HUVEC + TCR ligands], BT system [CD19+ B cells and PBMC + (α-IgM and TCR ligands)], BF4T system [bronchial epithelial cells and HDFn + (TNFα and IL-4)], BE3C system [bronchial epithelial cells + (IL-1β, TNFα and IFNy)], CASM3C system [coronary artery smooth muscle cells + (IL-1 β, TNFα and IFNy)], HDF3CGF system [HDFn + (IL-1β, TNFα, IFNy, EGF, bFGF and PDGF-BB)], KF3CT system [keratinocytes and HDFn + (IL-1β, TNFα, IFNy and TGFβ)], MyoF system [differentiated lung myofibroblasts + (TNFα and TGFβ)] and Mphg system [HUVEC and M1 macrophages + Zymosan (TLR2 ligand)].
Systems are derived from either single cell types or co-culture systems. Adherent cell types are cultured in 96 or 384-well plates until confluence, followed by the addition of PBMC (SAg and LPS systems). The BT system consists of CD19+ B cells co-cultured with PBMC and stimulated with a BCR activator and low levels of TCR stimulation. […] Each plate contains drug controls (e.g., legacy control test agent colchicine at 1.1 µM), negative controls (e.g., non-stimulated conditions) and vehicle controls (e.g., 0.1% DMSO) appropriate for each system. Direct ELISA is used to measure biomarker levels of cell-associated and cell membrane targets. Soluble factors from supernatants are quantified using either HTRF® detection, bead-based multiplex immunoassay or capture ELISA. Overt adverse effects of test agents on cell proliferation and viability (cytotoxicity) are detected by sulforhodamine B (SRB) staining, for adherent cells, and alamarBlue® reduction for cells in suspension. For proliferation assays, individual cell types are cultured at subconfluence and measured at time points optimized for each system (48-hrs: 3C and CASM3C systems; 72-hrs: BT and HDF3CGF systems; 96-hrs: SAg system). Cytotoxicity for adherent cells is measured by SRB (24-hrs: 3C, 4H, LPS, SAg, BF4T, BE3C, CASM3C, HDF3CGF, KF3CT, and Mphg systems; 48-hrs: MyoF system), and by alamarBlue staining for cells in suspension (24-hrs: SAg system; 42-hrs: BT system) at the time points indicated.
Biomarker measurements in a test agent-treated sample are divided by the average of control samples (at least 6 vehicle controls from the same plate) to generate a ratio that is then log10 transformed. Significance prediction envelopes are calculated using historical vehicle control data at a 95% confidence interval.
Biomarker activities are annotated when 2 or more consecutive concentrations change in the same direction relative to vehicle controls, are outside of the significance envelope and have at least one concentration with an effect size > 20% (|log10 ratio| > 0.1). Biomarker key activities are described as modulated if these activities increase in some systems, but decrease in others. […]

The next data set deals with blood coagulation (APTT). The data set is described as follows: Activated partial thromboplastin time (APTT) in blood of ALS patients after s.c. LMW-DS 1 mg/kg (Example 5). It is filed as in vivo, human. As for the experimental part:
This was a single-centre, open single-arm study where the safety, tolerability and efficacy of subcutaneous (s.c.) administered LMW-DS was evaluated in patients with ALS. There were 10 planned visits to the clinic: 1 screening visit divided in 2 parts (Visit 1a and Visit 1b), 5 IMP administration visits (Visit 2 to Visit 6) and 3 follow-up visits (Visit 7 to Visit 9). Each individual patient’s study participation was planned to be approximately 4 months, including the screening and follow-up visits.
The active pharmaceutical ingredient of the IMP was a low molecular weight dextran sulfate (LMW-DS), (ILB®, Tikomed AB, Viken, Sweden, WO 2016/076780). LMW-DS was prepared as a solution for s.c. injection and consisted of 20 mg/mL LMW-DS and 9 mg/mL NaCl. Each glass vial contained 10 mL. The dose administered depended on the patient’s body weight at Visit 2, prior to the first LMW-DS administration. LMW-DS was injected s.c. on alternating sides of the abdomen, thigh or the buttock (in that order of priority). Five injections of 1 mg/kg, with 1 week dosing interval, were administered. Changes in activated partial thromboplastin time (APTT) were recorded from blood samples taken at each visit.

Turning to sodium salt of dextran sulfate [LMW-DS], the annotated readouts in the data set with human primary cells (150 nM, 440 nM, 1.3 µM, 4 µM) was 25. Also, the “cytotoxicity for human primary cells” value in the data set with human primary cells (at the concentrations tested (150 nM - 4 µM)) is reported as “not cytotoxic”. The “thrombomodulin (TM)” value in the data set with human primary cells (hemostasis-related activity) is “increased”. In the data set with human primary cells (immunomodulatory activity), the CD69 result is “increased”, the M-CSF result is reported as “decreased”, the “secreted immunoglobulin G (sIgG)” value is on record as “decreased” and the “soluble IL-17A (sIL-17A)” value is “increased”. In addition, in the data set with human primary cells (inflammation-related activity), the “Eotaxin 3 (Eot3)” value is listed as “increased”, the I-TAC entry is “decreased”, the IL-8 result is reported as “increased” and the IP-10 entry is given as “decreased”. In addition, in the data set with human primary cells (inflammation-related activity), the MCP-1 result is on record as “decreased”, the MIG entry is “decreased”, the VCAM-1 entry is “decreased” and the sTNFα entry is given as “decreased”. For the same substance, in the data set with human primary cells (tissue remodeling activity), the EGFR result was “increased”, the MMP-1 entry is on record as “increased”, the PAI-1 result is on record as “increased” and the uPAR entry is on record as “increased”. The “antiproliferative effect on human primary endothelial cells” value in the data set on human primary cells (top concentration only (4 µM)) was “modestly and selectively antiproliferative”. The “APTT relative change from baseline” value in the data set on blood coagulation (APTT) (2 hours post-dosing) is “+33.5%”. For the same substance, the “APTT relative change from baseline” value in the data set on blood coagulation (APTT) (2.5 hours post-dosing) was “+26.5%”. Moreover, the “time at which APTT values returned to pre-dose levels” value with blood coagulation (APTT) (post dosing) was determined as 6 h.
